Our source for the IC50 values is ChEMBL document CHEMBL2086230, “Comparison of the cytotoxic effects of enantiopure PPAPs, including nemorosone and clusianone” (Bioorg Med Chem Lett, 2012).

Common to all, as to assay type: functional, cell-based
In one experiment the test system is MIA PaCa-2. The experiment is described as follows: Cytotoxicity against human MIAPaCa2 cells after 72 hrs by resazurin assay. On the technique in general: Alamar Blue is a resazurin reagent that responds to reducing activity.
The test system of another experiment is HeLa. The experiment is described as follows: Cytotoxicity against human HeLa cells after 72 hrs by resazurin assay.
In a further experiment the test system is MCF7. The experiment is described as follows: Cytotoxicity against human MCF7 cells after 72 hrs by resazurin assay.

Broadly, the IC50 is the midpoint of a concentration-inhibition curve. A higher IC50 goes with lower potency. On to `CC(C)=CC[C@H]1C[C@]2(CC=C(C)C)C(=O)[C@@](CC=C(C)C)(C(=O)C(C(=O)c3ccccc3)=C2O)C1(C)C` (stereo in doubt; (+)-4) [6-EPI-CLUSIANONE], for which the IC50 in the experiment with MIA PaCa-2 (Homo sapiens, MIA PaCa-2, 72 h) stood at 5.2 µM; in the experiment with HeLa (Homo sapiens, HeLa, 72 h) it was 5.8 µM; with MCF7 (Homo sapiens, MCF7, 72 h) it was 8.3 µM.

On to `CC(C)=CCC1=C(O)C2(CC=C(C)C)CC(CC=C(C)C)C(C)(C)C(C(=O)c3ccccc3)(C1=O)C2=O` (single isomer, unassigned; (+)), for which the IC50 with MIA PaCa-2 (Homo sapiens, MIA PaCa-2, 72 h) amounted to 3.4 µM; in the experiment on HeLa (Homo sapiens, HeLa, 72 h) it was 3.9 µM; with MCF7 (Homo sapiens, MCF7, 72 h), 6.5 µM.

On to `Nc1ccn([C@@H]2O[C@H](CO)[C@@H](O)C2(F)F)c(=O)n1` [GEMCITABINE], for which the IC50 was 0.06 µM with MIA PaCa-2 (Homo sapiens, MIA PaCa-2, 72 h); 0.05 µM in the experiment with HeLa (Homo sapiens, HeLa, 72 h); 0.06 µM in the experiment on MCF7 (Homo sapiens, MCF7, 72 h).

As to `CC(C)=CCC1=C(O)C2(C(=O)c3ccccc3)CC(CC=C(C)C)C(C)(C)C(CC=C(C)C)(C1=O)C2=O` (stereo in doubt; (-)-5), the IC50 amounted to 8.6 µM in the experiment with MIA PaCa-2 (mia paca-2), 10.9 µM in the experiment on HeLa (hela) and 10.9 µM in the experiment on MCF7 (mcf7).

Take `CC(C)=CC[C@H]1C[C@]2(CC=C(C)C)C(=O)[C@@](CC=C(C)C)(C(=O)C(C(=O)c3ccccc3)=C2O)C1(C)C` (stereo in doubt; (-)-4) [6-EPI-CLUSIANONE]: the IC50 is 3.8 µM in the experiment on MIA PaCa-2 (mia paca-2), 3 µM in the experiment on HeLa (hela) and 5.7 µM in the experiment with MCF7 (mcf7).

On to `CC(C)=CCC1=C(O)C2(CC=C(C)C)CC(CC=C(C)C)C(C)(C)C(C(=O)c3ccccc3)(C1=O)C2=O` (stereo in doubt; (-)-3), for which the IC50 stood at 3.5 µM in the experiment on MIA PaCa-2 (mia paca-2), 3.4 µM in the experiment with HeLa (hela) and 8 µM with MCF7 (mcf7).

Turning to `CC(C)=CCC1=C(O)C2(C(=O)c3ccccc3)CC(CC=C(C)C)C(C)(C)C(CC=C(C)C)(C1=O)C2=O` (single isomer, unassigned; (+)), the IC50 in the experiment on MIA PaCa-2 (Homo sapiens, MIA PaCa-2, 72 h) is 11.3 µM; in the experiment with HeLa (Homo sapiens, HeLa, 72 h), 10.1 µM; with MCF7 (Homo sapiens, MCF7, 72 h) it was 18.9 µM.

As for `CC(C)=CCC1=C(O)[C@@]2(C(=O)c3ccccc3)C(=O)[C@](CC=C(C)C)(C[C@H](CC=C(C)C)C2(C)C)C1=O`, the IC50 is 2.4 µM in the experiment on MIA PaCa-2 (Homo sapiens, MIA PaCa-2, 72 h); 2.9 µM in the experiment with HeLa (Homo sapiens, HeLa, 72 h); 5.2 µM in the experiment with MCF7 (Homo sapiens, MCF7, 72 h).
